Format in all cases: in vivo
Test [1] concerns crabgrass. Kind of test: Test Example 4: herbicidal effect test by foliage treatment in upland field. To be noted: upland field foliage treatment 7 days after sowing; 120 g/10a; evaluated 14 days after treatment. The method, then: (§1) This test was performed with two replications per one formulation concentration plot, and 14 days after the formulation treatments, the weed suppression rate (%) was determined according to the following equation (Math. 1). Weed suppression rate (%)=(1−an average dry weight (g) of plants in treated plots/an average dry weight (g) of plants in untreated plots)×100 [Math. 1]
(§2) A pot having a size of 36 cm^2 was filled with field soil (alluvial soil) and after uniformly mixing the soil of the surface layer of 1 cm with 20 grains of each weed seed of crabgrass, Echinochloa crus-galli, Chenopodium album and Amaranthus viridis, the surface layer was pressed lightly. Seven days after the sowing, an emulsifiable concentrate prepared according to Formulation Example 5 by using the compound shown in Table 8 below was diluted with water, and the water-diluted formulation was sprayed on the soil surface at a ratio of 100 liter per 10 are. The application rate of the active ingredient, by conversion, corresponded to 120 g per 10 are. Fourteen days after the formulation treatment, the herbicidal effect was evaluated by the same criteria as in Test Example 1.

The test system of test [2] is Echinochloa crus-galli. Described as above. Particulars: upland field foliage treatment 7 days after sowing; 120 g/10a; evaluated 14 days after treatment. The method, then:
as §1, §2

Test [3] has as its system Amaranthus viridis. Described as above. To be noted: upland field foliage treatment 7 days after sowing; 120 g/10a; evaluated 14 days after treatment. The method, then:
as §1, §2

Test [4] deals with Chenopodium album. Described as above. To be noted: upland field foliage treatment 7 days after sowing; 120 g/10a; evaluated 14 days after treatment. The method, then: as §1, §2
In test [5] the test system is Scirpus juncoides. Kind of test: Test Example 1: herbicidal effect test by soil treatment in paddy field. Particulars: 120 g/10a, paddy soil treatment just after sowing, 14 days after treatment. The gist of the method:
(§3)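 Weed suppression rate (%) = (1 − mean treated dry weight/mean untreated dry weight) × 100, assessed 14 days after treatment. Compound, formulated as an emulsifiable concentrate, was added dropwise to flooded pots at 120 g a.i. per 10 are just after seeding.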

Test [6] has as its system Lindernia pyxidaria. The test is described as above. To be noted: 120 g/10a, paddy soil treatment just after sowing, 14 days after treatment. The gist of the method: as §3
Test [7] concerns Echinochloa crus-galli. The test is described as above. To be noted: 120 g/10a, paddy soil treatment just after sowing, 14 days after treatment. The gist of the method: as §3
Test [8] deals with Monochoria vaginalis. Described as above. To be noted: 120 g/10a, paddy soil treatment just after sowing, 14 days after treatment. The gist of the method: as §3
The subject of test [9] is Scirpus juncoides. Kind of test: Test Example 2: herbicidal effect test by treatment during growing period in paddy field. Particulars: treatment 7 days after sowing, 120 g/10a, evaluated 14 days after treatment. The gist of the method: (§4)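 Read-out is weed suppression (%), 1 − mean dry weight treated/untreated ×100, taken 14 days after treatment with duplicate plots. Treatment: water-diluted emulsifiable concentrate added dropwise to flooded paddy-soil pots 7 days post-sowing at 120 g active ingredient per 10 are.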

Test [10] has as its system Lindernia pyxidaria. Described as above. Particulars: treatment 7 days after sowing, 120 g/10a, evaluated 14 days after treatment. The gist of the method:
as §4

Test [11] concerns Echinochloa crus-galli. Described as above. To be noted: treatment 7 days after sowing, 120 g/10a, evaluated 14 days after treatment. The gist of the method: as §4
Test [12] has as its system Monochoria vaginalis. The description is as above. Particulars: treatment 7 days after sowing, 120 g/10a, evaluated 14 days after treatment. The gist of the method:
as §4

The test system of test [13] is crabgrass. Kind of test: Test Example 3: herbicidal effect test by soil treatment in upland field. To be noted: upland field soil treatment 1 day after sowing; 120 g/10a; evaluated 14 days after treatment. The method, then:
as §1
as §2, with “One day” for “Seven days”, “7” for “8”

Test [14] has as its system Echinochloa crus-galli. Described as above. To be noted: upland field soil treatment 1 day after sowing; 120 g/10a; evaluated 14 days after treatment. The method, then:
as §1
as §2, with “One day” for “Seven days”, “7” for “8”

Test [15] concerns Amaranthus viridis. Described as above. Particulars: upland field soil treatment 1 day after sowing; 120 g/10a; evaluated 14 days after treatment. The method, then:
as §1
as §2, with “One day” for “Seven days”, “7” for “8”

The subject of test [16] is Chenopodium album. The description is as above. Particulars: upland field soil treatment 1 day after sowing; 120 g/10a; evaluated 14 days after treatment. The procedure: as §1
as §2, with “One day” for “Seven days”, “7” for “8”

This is an account of results in patent US11076595B2, “1-(n,n-disubstituted carbamoyl) 4-(substituted sulfonyl)triazolin-5-one derivative, 4-(n,n-disubstituted carbamoyl) 1-(substituted sulfonyl)triazolin-5-one derivative, and herbicide containing said derivative as active ingredient” (HOKKO CHEMICAL INDUSTRY CO., LTD., priority 2017, dated 2021).

SMILES strings stand for the structures.

Turning to `CC(C)N(C(=O)n1ncn(S(=O)(=O)C(C)C)c1=O)c1ccc(F)cc1F` [Compound 1-65], the “herbicidal effect (weed suppression rate), Crabgrass” value (from here on “herbicidal effect … Crabgrass”) in test [1] was found to be 90%; in test [13] it was 100%. Further, the “herbicidal effect (weed suppression rate), Echinochloa crus-galli” value (“herbicidal effect … Echinochloa crus-galli” below) in test [2] is on record as 80%; in [14] it was 100%. The figures for the “herbicidal effect (weed suppression rate), Amaranthus viridis” value (“herbicidal effect … Amaranthus viridis” below) in test [3] and in test [15] were 90% and 80%, respectively. Also, the “herbicidal effect (weed suppression rate), Chenopodium album” value (“herbicidal effect … Chenopodium album” below) is reported as 80% in [4] and 90% in [16]. In addition, the “weed suppression rate, Scirpus juncoides” value in [5] came out at 100%; in [9], 90%. Further, the figures for the “weed suppression rate, Lindemia pyxidaria” value in [6] and in test [10] were 100% and 90%, respectively. Moreover, the “weed suppression rate, Echinochloa crus-galli” value in [7] and in test [11] was 100% in each case. Moreover, the figures for the “weed suppression rate, Monochoria vaginalis” value in [8] and in test [12] were 100% and 90%, respectively.
As to `Cc1ccc(N(C(=O)n2ncn(S(=O)(=O)C(C)C)c2=O)C(C)C)c(F)c1` [Compound 1-79], the “herbicidal effect … Crabgrass” value in [1] and in test [13] was 90% throughout. Further, the “herbicidal effect … Echinochloa crus-galli” value in test [2] and in test [14] was 80% throughout. The “herbicidal effect … Amaranthus viridis” value in test [3] and in test [15] was 90% each time. Besides, the “herbicidal effect … Chenopodium album” value in [4] and in test [16] was 80% throughout. For the same compound, the “weed suppression rate, Scirpus juncoides” value in test [5] and in test [9] was 90% each time. Further, the “weed suppression rate, Lindemia pyxidaria” value in [6] and in test [10] was 80% throughout. In addition, the “weed suppression rate, Echinochloa crus-galli” value in test [7] and in test [11] was 90% each time. The “weed suppression rate, Monochoria vaginalis” value in test [8] and in test [12] was 80% in each case.
Take `CC(C)N(C(=O)n1ncn(S(=O)(=O)C(C)C)c1=O)c1cccnc1F` [Compound 1-90]: the figures for the “herbicidal effect … Crabgrass” value in [1] and in test [13] were 90% and 100%, respectively. Also, the “herbicidal effect … Echinochloa crus-galli” value is 90% in test [2] and 100% in test [14]. Further, the “herbicidal effect … Amaranthus viridis” value is 50% in test [3] and 90% in test [15]. For the same compound, the “herbicidal effect … Chenopodium album” value is given as 70% in test [4] and 90% in test [16]. Also, the “weed suppression rate, Scirpus juncoides” value in test [5] and in test [9] was 90% each time. The “weed suppression rate, Lindemia pyxidaria” value in test [6] and in test [10] was 90% in each case. In addition, the “weed suppression rate, Echinochloa crus-galli” value in test [7] and in [11] was 100% in each case. In addition, the “weed suppression rate, Monochoria vaginalis” value in test [8] is given as 80%; in test [12] it was 90%.
`CC(C)N(C(=O)n1ncn(S(=O)(=O)C(C)C)c1=O)c1ccc(Cl)cn1` [Compound 1-93]: the “herbicidal effect … Crabgrass” value in [1] and in [13] was 90% each time. Moreover, the “herbicidal effect … Echinochloa crus-galli” value in [2] and in test [14] was 90% throughout. The “herbicidal effect … Amaranthus viridis” value in [3] is on record as 0%; in test [15], 80%. Also, the figures for the “herbicidal effect … Chenopodium album” value in test [4] and in test [16] were 0% and 40%, respectively. The “weed suppression rate, Scirpus juncoides” value in test [5] and in [9] was 90% in each case. Moreover, the “weed suppression rate, Lindemia pyxidaria” value in [6] and in [10] was 100% throughout. Further, the “weed suppression rate, Echinochloa crus-galli” value in [7] is listed as 90%; in test [11], 100%. Moreover, the “weed suppression rate, Monochoria vaginalis” value is 80% in test [8] and 90% in test [12].
Turning to `CCN(C)S(=O)(=O)n1cnn(C(=O)N(c2ccc(F)cc2F)C(C)C)c1=O` [Compound 1-1139], the “weed suppression rate, Scirpus juncoides” value in [5] and in test [9] was 90% throughout. The “weed suppression rate, Lindemia pyxidaria” value in test [6] was 90%; in test [10], 80%. Besides, the results for the “weed suppression rate, Echinochloa crus-galli” value in [7] and in [11] were 100% and 90%, respectively. Further, the figures for the “weed suppression rate, Monochoria vaginalis” value in [8] and in test [12] were 90% and 80%, respectively. Also, the “herbicidal effect … Crabgrass” value in test [13] is 90%. The “herbicidal effect … Echinochloa crus-galli” value in test [14] came out at 80%. For the same compound, the “herbicidal effect … Amaranthus viridis” value in test [15] is 90%. The “herbicidal effect … Chenopodium album” value in test [16] is reported as 80%.
Consider `CC(C)CN(C)S(=O)(=O)n1cnn(C(=O)N(c2ccc(F)cc2F)C(C)C)c1=O` [Compound 1-1142], for which the “weed suppression rate, Scirpus juncoides” value in test [5] amounted to 80%; in [9] it was 90%. The “weed suppression rate, Lindemia pyxidaria” value in [6] and in test [10] was 80% throughout. Also, the “weed suppression rate, Echinochloa crus-galli” value is reported as 100% in [7] and 90% in test [11]. Moreover, the “weed suppression rate, Monochoria vaginalis” value in test [8] and in test [12] was 80% throughout. For the same compound, the “herbicidal effect … Crabgrass” value in [13] was found to be 90%. In [14], the “herbicidal effect … Echinochloa crus-galli” value is 80%. The “herbicidal effect … Amaranthus viridis” value in test [15] is listed as 90%. Further, the “herbicidal effect … Chenopodium album” value in test [16] is listed as 80%.
In the case of `CC(C)N(C(=O)n1ncn(S(=O)(=O)N2CCCCC2)c1=O)c1ccc(F)cc1F` [Compound 1-1143], the “weed suppression rate, Scirpus juncoides” value in test [5] and in test [9] was 90% each time. The “weed suppression rate, Lindemia pyxidaria” value in test [6] and in test [10] was 80% in each case. Moreover, the “weed suppression rate, Echinochloa crus-galli” value in test [7] and in test [11] was 90% each time. The “weed suppression rate, Monochoria vaginalis” value in test [8] and in [12] was 80% each time. The “herbicidal effect … Crabgrass” value in test [13] was 90%. In addition, in [14], the “herbicidal effect … Echinochloa crus-galli” value came to 80%. Also, the “herbicidal effect … Amaranthus viridis” value in [15] is listed as 90%. For the same compound, the “herbicidal effect … Chenopodium album” value in test [16] amounted to 80%.
As to `CC(C)N(C(=O)n1ncn(S(=O)(=O)C2CCOCC2)c1=O)c1ccc(F)cc1F` [Compound 1-1150], the “herbicidal effect … Crabgrass” value in [1] was found to be 90%; in test [13], 100%. The “herbicidal effect … Echinochloa crus-galli” value amounted to 80% in test [2] and 100% in test [14]. The “herbicidal effect … Amaranthus viridis” value in [3] was found to be 90%; in test [15] it was 100%. Also, the “herbicidal effect … Chenopodium album” value in [4] is 80%; in test [16], 100%.
